The target of experiment [1] is T1, human lysosomal β-galactosidase (β-Gal) (Homo sapiens, UniProt P16278).
T1 construct: in leukocytes isolated from healthy donors (controls); endogenous in cells; host or cells: human leukocytes from healthy donors, disrupted by sonication (crude homogenate)
T1 sequence (P16278 29-677): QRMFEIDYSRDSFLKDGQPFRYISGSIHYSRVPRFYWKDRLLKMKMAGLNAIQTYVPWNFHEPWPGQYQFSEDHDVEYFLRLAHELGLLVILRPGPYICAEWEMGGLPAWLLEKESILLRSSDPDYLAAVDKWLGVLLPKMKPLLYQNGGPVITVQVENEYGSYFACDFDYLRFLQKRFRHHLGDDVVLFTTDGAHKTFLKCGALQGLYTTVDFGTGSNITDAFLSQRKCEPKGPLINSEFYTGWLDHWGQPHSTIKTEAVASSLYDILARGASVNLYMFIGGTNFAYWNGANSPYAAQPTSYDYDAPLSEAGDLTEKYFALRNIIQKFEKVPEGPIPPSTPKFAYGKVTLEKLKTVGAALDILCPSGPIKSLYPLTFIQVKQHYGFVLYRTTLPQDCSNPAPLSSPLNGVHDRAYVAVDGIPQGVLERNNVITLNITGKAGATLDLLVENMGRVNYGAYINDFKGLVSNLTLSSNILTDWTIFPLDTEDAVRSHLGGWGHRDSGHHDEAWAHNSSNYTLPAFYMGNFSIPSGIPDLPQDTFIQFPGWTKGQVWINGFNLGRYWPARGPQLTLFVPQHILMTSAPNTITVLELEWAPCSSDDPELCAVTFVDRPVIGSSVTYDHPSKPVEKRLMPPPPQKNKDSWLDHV
Briefly: β-Gal inhibition in human leukocyte homogenates. The format is biochemical. The following applies: compounds 1 mM; human leukocytes extracts. How it is done:
The new compounds were screened at 1 mM concentration towards β-galactosidase (β-Gal) and β-glucosidase (GCase) in leukocytes isolated from healthy donors (controls). Isolated leukocytes were disrupted by sonication, and a Micro BCA Protein Assay Kit (Sigma–Aldrich, St. Louis, MO, USA) was used to determine the total protein amount for the enzymatic assay, according to the manufacturer’s instructions.
β-Gal activity was measured in a flat-bottomed 96-well plate. Azasugar solution (3 μL), 4.29 μg/μL leukocytes homogenate 1:10 (7 μL), and substrate 4-methylumbelliferyl β-D-galactopyranoside (1.47 mM, 20 μL, Sigma–Aldrich) in acetate buffer (0.1 M, pH 4.3) containing NaCl (0.1 M) and sodium azide (0.02%) were incubated at 37 °C for 1 h. The reaction was stopped by addition of sodium carbonate (200 μL; 0.5 M, pH 10.7) containing Triton X-100 (0.0025%), and the fluorescence 4-methylumbelliferone released by β-galactosidase activity was measured in SpectraMax M2 Microplate Reader (λex = 365 nm and λem = 435 nm; Molecular Devices LLC, San Jose, CA, US). Inhibition is given with respect to the control (without azasugar). Data are mean SD (n = 3).

The test system of experiment [2] is α-glucosidase EC 3.2.1.20. Briefly: Commercial glycosidase screening. The format is biochemical, rice. The following applies: 0.1 mM inhibitor. An excerpt: (§1) A panel of 12 commercial glycosidases (α-L-fucosidase EC 3.2.1.51 from Homo sapiens, α-galactosidase EC 3.2.1.22 from coffee beans, β-galactosidases EC 3.2.1.23 from Escherichia coli and Aspergillus oryzae, α-glucosidases EC 3.2.1.20 from yeast and rice, amyloglucosidase EC 3.2.1.3 from Aspergillus niger, β-glucosidase EC 3.2.1.21 from almonds, α-mannosidase EC 3.2.1.24 from Jack beans, β-mannosidase EC 3.2.1.25 from snail, β-N-acetylglucosaminidases EC 3.2.1.52 from Jack beans and bovine kidney) purchased from Sigma-Aldrich (St. Louis, MO, USA) or Megazyme Ltd. (Bray, Co. Wicklow, Ireland) was screened.
(§2) The percentage (%) of inhibition towards the corresponding glycosidase was determined in quadruplicate in the presence of 100 μM of the inhibitor on the well. Each enzymatic assay (final volume 0.12 mL) contains 0.01–0.5 units/mL of the enzyme (with previous calibration) and 4.2 mM aqueous solution of the appropriate p-nitrophenyl glycopyranoside (substrate) buffered to the optimal pH of the enzyme. Enzyme and inhibitor were preincubated for 5 min at room temperature, and the reaction started by addition of the substrate. After 20 min of incubation at 37 °C, the reaction was stopped by the addition of 0.1 mL of sodium borate solution (pH 9.8). The p-nitrophenolate formed was measured by visible absorption spectroscopy at 405 nm (Asys Expert 96 spectrophotometer, Biochrom Ltd., Cambridge, England). Under these conditions, the p-nitrophenolate released led to optical densities linear with both reaction time and concentration of the enzyme (for more details, see the Supplementary Materials). The IC50 value (concentration of inhibitor required for 50% inhibition of enzyme activity) was determined from plots of % inhibition vs. different inhibitor concentrations. Each point of the graph is the average of four measures. The standard deviation for each point has been also represented in the graph.

Experiment [3] concerns α-glucosidase EC 3.2.1.20. Briefly: Commercial glycosidase screening. The format is biochemical, yeast. The following applies: 0.1 mM inhibitor.
Text: as §1, §2

Results on four compounds are retold here after publication PMC7582770, “Synthesis of “All-Cis” Trihydroxypiperidines from a Carbohydrate-Derived Ketone: Hints for the Design of New β-Gal and GCase Inhibitors” (Molecules, 2020).

In experiment [1], `CCCCCCCCCO[C@H]1CNC[C@@H](O)[C@H]1O` [compound 9, (3S, 4R, 5R)-4,5-Dihydroxy-3-(Nonyloxy) Piperidine] displayed an inhibition at 1000 µM of 22%.

In experiment [1], `CCCCCCCCCCCCN[C@H]1CNC[C@@H](O)[C@H]1O` [compound 10, (3R, 4S, 5S)-3,4-Dihydroxy-5-(Dodecylamino) Piperidine] gave an inhibition at 1000 µM of 0%. For the same compound, the “% Inhibition at 0.1 mM, α-glucosidase rice” value in experiment [2] is “- (no inhibition detected)”. Also, in experiment [3], the “% Inhibition at 0.1 mM, α-glucosidase yeast” value is listed as “- (no inhibition detected)”.

For `CCCCCCCC[C@]1(O)CNC[C@@H](O)[C@H]1O` [compound 12, (3S, 4R, 5R)-3,4,5-Trihydroxy-3-Octyl-Piperidine], testing at 1000 µM in experiment [1] gave an inhibition of 0%. Besides, the “% Inhibition at 0.1 mM, α-glucosidase rice” value in experiment [2] is given as “- (no inhibition detected)”. Further, in experiment [3], the “% Inhibition at 0.1 mM, α-glucosidase yeast” value is recorded as “- (no inhibition detected)”.

`CCCCCCCCCO[C@@H]1CNC[C@@H](O)[C@H]1O` [compound 21, (3R, 4R, 5R)-4,5-Dihydroxy-3-(Nonyloxy) Piperidine] came in with an inhibition at 1000 µM in experiment [1] of 0%. Besides, the “% Inhibition at 0.1 mM, α-glucosidase rice” value in experiment [2] is given as “- (no inhibition detected)”. The “% Inhibition at 0.1 mM, α-glucosidase yeast” value in experiment [3] is given as “- (no inhibition detected)”.
